For one compound, IC50 results are on record in BindingDB's records for doi:10.1021/acsmedchemlett.9b00625 (Rwth Aachen University, 2020).

A short description of experiment [1]: Inhibition of BRD4 in human HEL cells harboring JAK2 V617F mutant assessed as decrease in metabolic activity measured after 72 hrs by MTT assay. For orientation: Tetrazolium assays rely on reduction of a dye to a coloured formazan, in cell work by metabolically active cells.
A short description of experiment [2]: Inhibition of BRD4 in human MOLM-14 cells harboring FLT3-ITD mutant assessed as decrease in metabolic activity measured after 72 hrs by MTT assay.

One may read the pIC50 as the negative decadic logarithm of the IC50, by convention in mol/L.

pIC50: −log10 of the molar value.

As for `CN1Cc2cc(N=[S@@](C)(=O)c3ccccc3)ccc2NC1=O`, the figures for the pIC50 in experiment [1] and in experiment [2] were 6.30 and 6.00, respectively.
